Measured values taken from patent US8822463B2, “Methylcyclohexane derivatives and uses thereof” (Sk Biopharmaceuticals Co., Ltd., priority 2010, dated 2014).
Counter-ions that a name gives are not always drawn.

How the values were obtained:
[1] = tested on: LPS-induced NO production in mouse monocytes (RAW); assay: LPS-induced NO production inhibition test, mouse monocytes (RAW); type: cell-based; details: Monocyte, RAW cells, 20 ng/ml LPS, 24 hours, Griess reagent
Protocol: (§1) Mouse monocytes (RAW) and mouse microglia (BV2) cells were cultured on a 96-well transparent plate (Nunc) in such a way that each of the wells contained 60,000 and 35,000 cells respectively. After 18 hours, when stabilized, the cells were treated with lipopolysaccharide (Sigma, USA, Cat No. L2630) in a morbid state derived from 20 ng/ml of Escherichia coli O111:B4 and 4 different concentrations (50 uM, 12.5 uM, 3.1 uM, and 0.8 uM) of the compounds synthesized according to Examples 1 to 55. Then, the cells were cultured for 24 hours, and a concentration of increased NO was measured. The NO concentration was determined by measuring absorption at a wavelength of 540 nm after a Griess reagent including 0.1% N-(1-naphthyl)ethylenediamine dihydrochloride, 1% sulfanilamide, and 2.5% phosphoric acid were added thereto.

[2] = tested on: LPS-induced NO production in mouse microglia (BV2); assay: LPS-induced NO production inhibition test, mouse microglia (BV2); type: cell-based; details: BV-2, BV2 cells, 20 ng/ml LPS, 24 hours, Griess reagent
Protocol: as §1

Row | IC50 [1] [µM] | IC50 [2] [µM] | SMILES
1 | 27.9 | 19.9 | O=C(NCCc1ccccc1)OC1CCC(COC(=O)N2CCCC2)CC1 (stereo not shown) [Example 1, pyrrolidine-1-carboxylic acid 4-phenethylcarbamoyloxy-cyclohexylmethyl ester]
2 | > 50 | 40.1 | O=C(NCCc1ccccn1)OC1CCC(COC(=O)N2CCCC2)CC1 (stereo not shown) [Example 2, pyrrolidine-1-carboxylic acid 4-(2-pyridin-2-yl-ethylcarbamoyloxy)-cyclohexylmethyl ester]
3 | 22.3 | 30.3 | O=C(NCCc1cccnc1)OC1CCC(COC(=O)N2CCCC2)CC1 (stereo not shown) [Example 3, pyrrolidine-1-carboxylic acid 4-(2-pyridin-3-yl-ethylcarbamoyloxy)-cyclohexylmethyl ester]
4 | 30.3 | 32.9 | O=C(NCCc1ccncc1)OC1CCC(COC(=O)N2CCCC2)CC1 (stereo not shown) [Example 4, pyrrolidine-1-carboxylic acid 4-(2-pyridin-4-yl-ethylcarbamoyloxy)-cyclohexylmethyl ester]
5 | > 50 | 48.7 | O=C(NCCc1cccc[n+]1[O-])OC1CCC(COC(=O)N2CCCC2)CC1 (stereo not shown) [Example 5, pyrrolidine-1-carboxylic acid 4-[2-(1-oxy-pyridin-2-yl)-ethylcarbamoyloxy]-cyclohexylmethyl ester]
6 | 41.2 | > 50 | O=C(NCCc1ccc[n+]([O-])c1)OC1CCC(COC(=O)N2CCCC2)CC1 (stereo not shown) [Example 6, pyrrolidine-1-carboxylic acid 4-[2-(1-oxy-pyridin-3-yl)-ethylcarbamoyloxy]-cyclohexylmethyl ester]
7 | > 50 | > 50 | O=C(NCc1ccccn1)OC1CCC(COC(=O)N2CCCC2)CC1 (stereo not shown) [Example 7, pyrrolidine-1-carboxylic acid 4-(pyridin-2-ylmethylcarbamoyloxy)-cyclohexylmethyl ester]
8 | > 50 | > 50 | O=C(NCc1ccncc1)OC1CCC(COC(=O)N2CCCC2)CC1 (stereo not shown) [Example 9, pyrrolidine-1-carboxylic acid 4-(pyridin-4-ylmethylcarbamoyloxy)-cyclohexylmethyl ester]
9 | 46.1 | 5.3 | CN(Cc1ccccn1)C(=O)OC1CCC(COC(=O)N2CCCC2)CC1 (stereo not shown) [Example 10, pyrrolidine-1-carboxylic acid 4-(methyl-pyridin-2-ylmethyl-carbamoyloxy)-cyclohexylmethyl ester]
10 | 10.2 | > 50 | O=C(NCc1cc[n+]([O-])cc1)OC1CCC(COC(=O)N2CCCC2)CC1 (stereo not shown) [Example 11, pyrrolidine-1-carboxylic acid 4-(1-oxy-pyridin-4-ylmethylcarbamoyloxy)-cyclohexylmethyl ester]
11 | > 50 | > 50 | O=C(NCc1ccc[n+]([O-])c1)OC1CCC(COC(=O)N2CCCC2)CC1 (stereo not shown) [Example 12, pyrrolidine-1-carboxylic acid 4-(1-oxy-pyridin-3-ylmethylcarbamoyloxy)-cyclohexylmethyl ester]
12 | 27.9 | > 50 | O=C(NCc1cccc[n+]1[O-])OC1CCC(COC(=O)N2CCCC2)CC1 (stereo not shown) [Example 13, pyrrolidine-1-carboxylic acid 4-(1-oxy-pyridin-2-ylmethylcarbamoyloxy)-cyclohexylmethyl ester]
13 | 21.7 | 22.3 | O=C(NCc1cccc(Cl)n1)OC1CCC(COC(=O)N2CCCC2)CC1 (stereo not shown) [Example 14, pyrrolidine-1-carboxylic acid 4-(6-chloro-pyridin-2-ylmethylcarbamoyloxy)-cyclohexylmethyl ester]
14 | 11.1 | 13.8 | O=C(NCc1ccc(C(F)(F)F)nc1)OC1CCC(COC(=O)N2CCCC2)CC1 (stereo not shown) [Example 19, pyrrolidine-1-carboxylic acid 4-(6-trifluoromethyl-pyridin-3-ylmethylcarbamoyloxy)-cyclohexylmethyl ester]
15 | 35.8 | 21.7 | Cc1cccc(NC(=O)OC2CCC(COC(=O)N3CCCC3)CC2)n1 (stereo not shown) [Example 22, pyrrolidine-1-carboxylic acid 4-(6-methyl-pyridin-2-ylcarbamoyloxy)-cyclohexylmethyl ester]
16 | > 50 | > 50 | O=C(Nc1cc(Cl)nc(Cl)c1)OC1CCC(COC(=O)N2CCCC2)CC1 (stereo not shown) [Example 24, pyrrolidine-1-carboxylic acid 4-(2,6-dichloro-pyridin-4-ylcarbamoyloxy)-cyclohexylmethyl ester]
17 | 24.9 | 15.5 | O=C(Nc1cccc[n+]1[O-])OC1CCC(COC(=O)N2CCCC2)CC1 (stereo not shown) [Example 25, pyrrolidine-1-carboxylic acid 4-(1-oxy-pyridin-2-ylcarbamoyloxy)-cyclohexylmethyl ester]
18 | 46.1 | 36.8 | O=C(NCc1ccccn1)OC1CCC(COC(=O)N2CCCCC2)CC1 (stereo not shown) [Example 26]
19 | 50 | > 50 | O=C(NCc1ccccn1)OC1CCC(COC(=O)N2CCOCC2)CC1 (stereo not shown) [Example 27]
20 | > 50 | 44.8 | O=C(NCc1ccccn1)OC1CCC(COC(=O)N2CCNCC2)CC1 (stereo not shown) [Example 28, HCl salt]
21 | 46.1 | > 50 | CN1CCN(C(=O)OCC2CCC(OC(=O)NCc3ccccc3)CC2)CC1 (stereo not shown) [Example 29, 4-methyl-piperazine-1-carboxylic acid 4-benzylcarbamoyloxy-cyclohexylmethyl ester]
22 | > 50 | > 50 | O=C(OC1CCC(COC(=O)N2CCCC2)CC1)c1ccccn1 (stereo not shown) [Example 30, pyridine-2-carboxylic acid 4-(pyrrolidine-1-carbonyloxymethyl)-cyclohexyl ester]
23 | > 50 | 21.1 | O=C(OC1CCC(COC(=O)N2CCCC2)CC1)c1cccnc1 (stereo not shown) [Example 31, pyridine-3-carboxylic acid 4-(pyrrolidine-1-carbonyloxymethyl)-cyclohexyl ester]
24 | 21.1 | 34.8 | O=C(OC1CCC(COC(=O)N2CCCC2)CC1)c1ccncc1 (stereo not shown) [Example 32, pyridine-4-carboxylic acid 4-(pyrrolidine-1-carbonyloxymethyl)-cyclohexyl ester]
25 | 24.9 | 27.1 | O=C(OCC1CCC(OCc2ccccc2)CC1)N1CCCC1 (stereo not shown) [Example 34, pyrrolidine-1-carboxylic acid 4-benzyloxy-cyclohexylmethyl ester]
26 | > 50 | 50 | O=C(OCC1CCC(OCc2ccccn2)CC1)N1CCCC1 (stereo not shown) [Example 35, pyrrolidine-1-carboxylic acid 4-(pyridin-2-ylmethoxy)-cyclohexylmethyl ester]
27 | > 50 | > 50 | O=C(OCC1CCC(OCc2cccc[n+]2[O-])CC1)N1CCCC1 (stereo not shown) [Example 36, pyrrolidine-1-carboxylic acid 4-(1-oxy-pyridin-2-ylmethoxy)-cyclohexylmethyl ester]
28 | 46.1 | > 50 | O=C(OCC1CCC(NCc2ccccc2)CC1)N1CCCC1 (stereo not shown) [Example 37, pyrrolidine-1-carboxylic acid 4-benzylaminocyclohexylmethyl ester HCl salt]

Row | SMILES | IC50 [1] [µM] | IC50 [2] [µM]
29 | O=C(Cc1ccccn1)OC1CCC(COC(=O)N2CCCC2)CC1 (stereo not shown) [Example 33, pyrrolidine-1-carboxylic acid 4-(2-pyridin-2-yl-acetoxy)-cyclohexylmethyl ester] | > 50 | > 50
